Values joined by “and” are separate entries in the source; they are usually repeats but may differ in a detail not shown here. Equal values may be shown once.
Legend:
[1] = molecular target: Transcription intermediary factor 1-alpha (Homo sapiens) (UniProt O15164); assay: Thermal Shift Assay. Domain start/stop: N790-P971; settings: Compound concentration 10.0 uM, Protein concentration 2.0 uM
[2] = molecular target: T1, E3 ubiquitin-protein ligase TRIM33 (Homo sapiens) (UniProt Q9UPN9); assay: Thermal Shift Assay. Domain start/stop: D882-P1073; settings: Compound concentration 10.0 uM
T1 sequence (whole entry): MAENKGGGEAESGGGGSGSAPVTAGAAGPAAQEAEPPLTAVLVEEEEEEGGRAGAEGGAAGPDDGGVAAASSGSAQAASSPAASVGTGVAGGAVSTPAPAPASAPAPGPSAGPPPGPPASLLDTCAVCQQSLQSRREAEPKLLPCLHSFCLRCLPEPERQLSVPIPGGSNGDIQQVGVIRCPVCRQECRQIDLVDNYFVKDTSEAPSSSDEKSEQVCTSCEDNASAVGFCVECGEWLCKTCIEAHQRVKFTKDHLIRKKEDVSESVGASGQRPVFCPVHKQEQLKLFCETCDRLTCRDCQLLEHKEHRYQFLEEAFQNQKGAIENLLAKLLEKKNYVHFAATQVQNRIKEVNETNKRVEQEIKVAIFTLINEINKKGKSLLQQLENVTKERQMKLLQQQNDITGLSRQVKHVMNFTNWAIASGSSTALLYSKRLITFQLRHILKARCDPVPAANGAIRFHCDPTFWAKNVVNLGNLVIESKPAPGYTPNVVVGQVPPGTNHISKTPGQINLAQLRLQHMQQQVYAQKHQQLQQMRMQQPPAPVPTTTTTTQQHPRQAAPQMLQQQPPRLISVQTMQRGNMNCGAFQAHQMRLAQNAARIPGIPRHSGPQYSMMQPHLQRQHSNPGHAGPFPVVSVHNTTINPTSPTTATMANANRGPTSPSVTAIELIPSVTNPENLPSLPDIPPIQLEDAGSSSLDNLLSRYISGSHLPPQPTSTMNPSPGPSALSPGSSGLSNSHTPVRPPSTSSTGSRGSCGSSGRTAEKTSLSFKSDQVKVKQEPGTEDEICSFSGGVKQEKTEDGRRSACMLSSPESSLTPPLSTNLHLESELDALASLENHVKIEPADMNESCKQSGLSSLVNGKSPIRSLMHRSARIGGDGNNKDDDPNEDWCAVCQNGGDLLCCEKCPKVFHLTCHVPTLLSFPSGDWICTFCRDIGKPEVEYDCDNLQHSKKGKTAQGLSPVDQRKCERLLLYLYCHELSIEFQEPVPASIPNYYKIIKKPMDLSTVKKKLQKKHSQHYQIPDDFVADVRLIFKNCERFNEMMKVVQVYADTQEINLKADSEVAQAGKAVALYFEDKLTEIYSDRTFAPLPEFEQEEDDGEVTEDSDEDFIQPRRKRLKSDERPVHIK

[3] = molecular target: Bromodomain-containing protein 1 (Homo sapiens, UniProt O95696)
[4] = molecular target: T1, E3 ubiquitin-protein ligase TRIM33 (Homo sapiens); settings: Compound concentration […], Protein concentration 200.0 uM
[5] = molecular target: Histone-lysine N-methyltransferase ASH1L (Homo sapiens) (UniProt Q9NR48); settings: Compound concentration 10.0 uM, Protein concentration 2.0 uM
[6] = molecular target: ATPase family AAA domain-containing protein 2 (Homo sapiens) (UniProt Q6PL18); settings: Compound concentration 10.0 uM, Protein concentration 2.0 uM
[7] = molecular target: ATPase family AAA domain-containing protein 2B (Homo sapiens) (UniProt Q9ULI0); settings: Compound concentration 10.0 uM, Protein concentration 2.0 uM
[8] = molecular target: Bromodomain adjacent to zinc finger domain protein 1A (Homo sapiens) (UniProt Q9NRL2); settings: Compound concentration 10.0 uM, Protein concentration 2.0 uM
[9] = molecular target: Tyrosine-protein kinase BAZ1B (Homo sapiens) (UniProt Q9UIG0); settings: Compound concentration 10.0 uM, Protein concentration 2.0 uM
[10] = molecular target: Bromodomain adjacent to zinc finger domain protein 2A (Homo sapiens) (UniProt Q9UIF9); settings: Compound concentration 10.0 uM, Protein concentration 2.0 uM
[11] = molecular target: Bromodomain adjacent to zinc finger domain protein 2B (Homo sapiens) (UniProt Q9UIF8); settings: Compound concentration 10.0 uM, Protein concentration 2.0 uM
[12] = molecular target: Nucleosome-remodeling factor subunit BPTF (Homo sapiens) (UniProt Q12830); settings: Compound concentration 10.0 uM, Protein concentration 2.0 uM
[13] = molecular target: Bromodomain-containing protein 1 (Homo sapiens) (UniProt O95696); settings: Compound concentration 10.0 uM, Protein concentration 2.0 uM
[14] = molecular target: Bromodomain-containing protein 2 (Homo sapiens) (UniProt P25440); settings: Compound concentration 10.0 uM, Protein concentration 2.0 uM
[15] = molecular target: Bromodomain-containing protein 2 (Homo sapiens) (UniProt P25440); settings: Compound concentration 10.0 uM, Protein concentration 2.0 uM; remark: listed apart in the source
[16] = molecular target: Bromodomain-containing protein 3 (Homo sapiens) (UniProt Q15059); settings: Compound concentration 10.0 uM, Protein concentration 2.0 uM
[17] = molecular target: Bromodomain-containing protein 3 (Homo sapiens) (UniProt Q15059); settings: Compound concentration 10.0 uM, Protein concentration 2.0 uM; remark: listed apart in the source
[18] = molecular target: Bromodomain-containing protein 4 (Homo sapiens) (UniProt O60885); settings: Compound concentration 10.0 uM, Protein concentration 2.0 uM
[19] = molecular target: Bromodomain-containing protein 7 (Homo sapiens) (UniProt Q9NPI1); settings: Compound concentration 10.0 uM, Protein concentration 2.0 uM
[20] = molecular target: Bromodomain-containing protein 9 (Homo sapiens) (UniProt Q9H8M2); settings: Compound concentration 10.0 uM, Protein concentration 2.0 uM
[21] = molecular target: Bromodomain testis-specific protein (Homo sapiens) (UniProt Q58F21); settings: Compound concentration 10.0 uM, Protein concentration 2.0 uM
[22] = molecular target: Bromodomain testis-specific protein (Homo sapiens) (UniProt Q58F21); settings: Compound concentration 10.0 uM, Protein concentration 2.0 uM; remark: listed apart in the source
Peregrin (Homo sapiens) [23] = molecular target: Peregrin (Homo sapiens) (UniProt P55201); settings: Compound concentration 10.0 uM, Protein concentration 2.0 uM
[24] = molecular target: Bromodomain and PHD finger-containing protein 3 (Homo sapiens) (UniProt Q9ULD4); settings: Compound concentration 10.0 uM, Protein concentration 2.0 uM
[25] = molecular target: Bromodomain and WD repeat-containing protein 1 (Homo sapiens) (UniProt Q9NSI6); settings: Compound concentration 10.0 uM, Protein concentration 2.0 uM
[26] = molecular target: Bromodomain and WD repeat-containing protein 3 (Homo sapiens) (UniProt Q6RI45); settings: Compound concentration 10.0 uM, Protein concentration 2.0 uM
[27] = molecular target: Chromatin remodeling regulator CECR2 (Homo sapiens) (UniProt Q9BXF3); settings: Compound concentration 10.0 uM, Protein concentration 2.0 uM
[28] = molecular target: Chromatin remodeling regulator CECR2 (Homo sapiens) (UniProt Q9BXF3); settings: Compound concentration 10.0 uM, Protein concentration 2.0 uM; remark: listed apart in the source
[29] = molecular target: CREB-binding protein (Homo sapiens) (UniProt Q92793); settings: Compound concentration 10.0 uM, Protein concentration 2.0 uM
[30] = molecular target: Histone acetyltransferase p300 (Homo sapiens) (UniProt Q09472); settings: Compound concentration 10.0 uM, Protein concentration 2.0 uM
[31] = molecular target: Histone acetyltransferase KAT2A (Homo sapiens) (UniProt Q92830); settings: Compound concentration 10.0 uM, Protein concentration 2.0 uM
[32] = molecular target: Histone acetyltransferase KAT2B (Homo sapiens) (UniProt Q92831); settings: Compound concentration 10.0 uM, Protein concentration 2.0 uM
[33] = molecular target: Histone-lysine N-methyltransferase 2A (Homo sapiens) (UniProt Q03164); settings: Compound concentration 10.0 uM, Protein concentration 2.0 uM
[34] = molecular target: Protein polybromo-1 (Homo sapiens) (UniProt Q86U86); settings: Compound concentration 10.0 uM, Protein concentration 2.0 uM
[35] = molecular target: Protein polybromo-1 (Homo sapiens) (UniProt Q86U86); settings: Compound concentration 10.0 uM, Protein concentration 2.0 uM; remark: listed apart in the source
[36] = molecular target: Protein polybromo-1 (Homo sapiens) (UniProt Q86U86); settings: Compound concentration 10.0 uM, Protein concentration 2.0 uM; remark: listed apart in the source
[37] = molecular target: Protein polybromo-1 (Homo sapiens) (UniProt Q86U86); settings: Compound concentration 10.0 uM, Protein concentration 2.0 uM; remark: listed apart in the source
[38] = molecular target: Protein polybromo-1 (Homo sapiens) (UniProt Q86U86); settings: Compound concentration 10.0 uM, Protein concentration 2.0 uM; remark: listed apart in the source
[39] = molecular target: Protein polybromo-1 (Homo sapiens) (UniProt Q86U86); settings: Compound concentration 10.0 uM, Protein concentration 2.0 uM; remark: listed apart in the source
[40] = molecular target: PH-interacting protein (Homo sapiens) (UniProt Q8WWQ0); settings: Compound concentration 10.0 uM, Protein concentration 2.0 uM
[41] = molecular target: SWI/SNF-related matrix-associated actin-dependent regulator of chromatin subfamily A member 2 (Homo sapiens) (UniProt P51531); settings: Compound concentration 10.0 uM, Protein concentration 2.0 uM
[42] = molecular target: SWI/SNF-related matrix-associated actin-dependent regulator of chromatin subfamily A member 4 (Homo sapiens) (UniProt P51532); settings: Compound concentration 10.0 uM, Protein concentration 2.0 uM
[43] = molecular target: Nuclear body protein SP140 (Homo sapiens) (UniProt Q13342); settings: Compound concentration 10.0 uM, Protein concentration 2.0 uM
[44] = molecular target: Nuclear body protein SP140-like protein (Homo sapiens) (UniProt Q9H930); settings: Compound concentration 10.0 uM, Protein concentration 2.0 uM
[45] = molecular target: Transcription initiation factor TFIID subunit 1 (Homo sapiens) (UniProt P21675); settings: Compound concentration 10.0 uM, Protein concentration 2.0 uM
[46] = molecular target: Transcription initiation factor TFIID subunit 1 (Homo sapiens) (UniProt P21675); settings: Compound concentration 10.0 uM, Protein concentration 2.0 uM; remark: listed apart in the source
[47] = molecular target: Transcription initiation factor TFIID subunit 1-like (Homo sapiens) (UniProt Q8IZX4); settings: Compound concentration 10.0 uM, Protein concentration 2.0 uM
[48] = molecular target: Transcription initiation factor TFIID subunit 1-like (Homo sapiens) (UniProt Q8IZX4); settings: Compound concentration 10.0 uM, Protein concentration 2.0 uM; remark: listed apart in the source
[49] = molecular target: Transcription intermediary factor 1-alpha (Homo sapiens) (UniProt O15164); settings: Compound concentration 10.0 uM, Protein concentration 2.0 uM
[50] = molecular target: Transcription intermediary factor 1-beta (Homo sapiens) (UniProt Q13263); settings: Compound concentration 10.0 uM, Protein concentration 2.0 uM
Peregrin (Homo sapiens) [51] = molecular target: Peregrin (Homo sapiens) (UniProt P55201); settings: Compound concentration 10.0 uM, Protein concentration 2.0 uM; remark: listed apart in the source

Transcription intermediary factor 1-alpha (Homo sapiens), sequence (O15164 whole entry): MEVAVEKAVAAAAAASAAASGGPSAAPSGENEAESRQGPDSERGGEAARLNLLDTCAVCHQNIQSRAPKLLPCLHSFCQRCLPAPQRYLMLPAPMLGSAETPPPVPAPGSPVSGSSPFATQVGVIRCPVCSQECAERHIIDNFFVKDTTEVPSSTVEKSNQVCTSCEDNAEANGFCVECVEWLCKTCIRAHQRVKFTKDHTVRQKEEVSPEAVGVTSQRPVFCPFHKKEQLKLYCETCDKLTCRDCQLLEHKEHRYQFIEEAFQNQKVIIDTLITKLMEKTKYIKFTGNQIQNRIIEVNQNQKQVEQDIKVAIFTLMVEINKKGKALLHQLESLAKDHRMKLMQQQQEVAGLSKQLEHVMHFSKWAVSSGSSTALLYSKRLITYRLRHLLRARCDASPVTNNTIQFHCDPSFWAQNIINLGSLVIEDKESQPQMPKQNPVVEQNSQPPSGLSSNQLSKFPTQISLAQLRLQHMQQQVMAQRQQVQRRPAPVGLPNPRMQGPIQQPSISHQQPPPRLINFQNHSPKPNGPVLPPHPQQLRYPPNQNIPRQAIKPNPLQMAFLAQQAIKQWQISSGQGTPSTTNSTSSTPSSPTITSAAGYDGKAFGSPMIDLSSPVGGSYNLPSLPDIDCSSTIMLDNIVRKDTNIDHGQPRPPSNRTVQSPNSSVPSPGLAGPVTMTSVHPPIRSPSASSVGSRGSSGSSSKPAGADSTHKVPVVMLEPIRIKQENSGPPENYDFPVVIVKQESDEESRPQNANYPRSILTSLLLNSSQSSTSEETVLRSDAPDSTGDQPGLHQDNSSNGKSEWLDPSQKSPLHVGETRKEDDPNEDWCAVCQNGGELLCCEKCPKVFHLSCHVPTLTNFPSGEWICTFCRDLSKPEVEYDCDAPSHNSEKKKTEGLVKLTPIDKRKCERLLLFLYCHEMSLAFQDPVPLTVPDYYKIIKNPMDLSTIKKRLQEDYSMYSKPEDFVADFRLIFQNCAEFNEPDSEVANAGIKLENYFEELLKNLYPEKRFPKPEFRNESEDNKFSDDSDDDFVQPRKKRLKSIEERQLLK
Protein polybromo-1 (Homo sapiens), sequence (Q86U86 whole entry): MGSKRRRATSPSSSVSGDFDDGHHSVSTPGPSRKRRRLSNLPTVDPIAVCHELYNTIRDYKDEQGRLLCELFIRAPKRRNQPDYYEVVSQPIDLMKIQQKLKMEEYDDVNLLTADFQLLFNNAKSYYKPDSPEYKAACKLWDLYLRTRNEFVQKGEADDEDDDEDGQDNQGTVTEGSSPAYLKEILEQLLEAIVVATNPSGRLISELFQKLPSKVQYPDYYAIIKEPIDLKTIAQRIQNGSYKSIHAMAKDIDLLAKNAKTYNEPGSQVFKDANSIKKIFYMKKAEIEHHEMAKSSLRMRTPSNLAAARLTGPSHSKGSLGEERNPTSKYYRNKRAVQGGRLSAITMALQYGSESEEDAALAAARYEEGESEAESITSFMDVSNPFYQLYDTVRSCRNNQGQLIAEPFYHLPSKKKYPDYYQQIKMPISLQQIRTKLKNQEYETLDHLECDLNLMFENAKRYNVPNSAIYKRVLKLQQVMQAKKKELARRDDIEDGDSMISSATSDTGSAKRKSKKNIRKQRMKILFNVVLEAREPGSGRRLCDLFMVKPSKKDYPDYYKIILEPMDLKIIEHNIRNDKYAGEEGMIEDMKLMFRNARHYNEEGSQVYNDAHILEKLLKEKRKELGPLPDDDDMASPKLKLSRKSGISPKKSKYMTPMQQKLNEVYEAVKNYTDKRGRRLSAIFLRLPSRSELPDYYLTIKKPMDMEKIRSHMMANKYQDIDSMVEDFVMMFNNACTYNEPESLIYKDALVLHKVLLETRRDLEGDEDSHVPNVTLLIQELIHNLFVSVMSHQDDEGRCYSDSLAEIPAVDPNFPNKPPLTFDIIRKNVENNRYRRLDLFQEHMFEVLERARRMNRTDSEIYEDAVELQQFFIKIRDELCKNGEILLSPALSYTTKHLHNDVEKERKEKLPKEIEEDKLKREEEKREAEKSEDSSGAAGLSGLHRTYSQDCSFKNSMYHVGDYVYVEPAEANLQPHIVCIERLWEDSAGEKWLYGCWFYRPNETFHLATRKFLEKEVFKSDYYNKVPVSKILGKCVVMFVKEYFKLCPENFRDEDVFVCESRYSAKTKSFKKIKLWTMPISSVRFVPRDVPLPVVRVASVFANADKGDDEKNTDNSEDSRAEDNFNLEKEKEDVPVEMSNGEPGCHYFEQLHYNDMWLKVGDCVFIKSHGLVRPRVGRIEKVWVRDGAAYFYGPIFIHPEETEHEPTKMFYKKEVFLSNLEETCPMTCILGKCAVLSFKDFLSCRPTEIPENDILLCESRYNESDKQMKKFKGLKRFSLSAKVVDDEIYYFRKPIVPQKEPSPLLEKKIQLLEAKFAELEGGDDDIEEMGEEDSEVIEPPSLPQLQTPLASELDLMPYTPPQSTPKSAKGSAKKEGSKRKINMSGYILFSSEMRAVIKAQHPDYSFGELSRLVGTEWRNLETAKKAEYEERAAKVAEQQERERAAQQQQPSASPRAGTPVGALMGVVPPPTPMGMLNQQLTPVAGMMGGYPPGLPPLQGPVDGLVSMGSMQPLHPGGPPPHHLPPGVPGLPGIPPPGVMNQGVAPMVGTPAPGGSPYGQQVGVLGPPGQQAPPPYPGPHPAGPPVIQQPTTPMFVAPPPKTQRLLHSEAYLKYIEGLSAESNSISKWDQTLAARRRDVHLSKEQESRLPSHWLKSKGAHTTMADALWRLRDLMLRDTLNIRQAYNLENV
Transcription initiation factor TFIID subunit 1-like (Homo sapiens), sequence (Q8IZX4 whole entry): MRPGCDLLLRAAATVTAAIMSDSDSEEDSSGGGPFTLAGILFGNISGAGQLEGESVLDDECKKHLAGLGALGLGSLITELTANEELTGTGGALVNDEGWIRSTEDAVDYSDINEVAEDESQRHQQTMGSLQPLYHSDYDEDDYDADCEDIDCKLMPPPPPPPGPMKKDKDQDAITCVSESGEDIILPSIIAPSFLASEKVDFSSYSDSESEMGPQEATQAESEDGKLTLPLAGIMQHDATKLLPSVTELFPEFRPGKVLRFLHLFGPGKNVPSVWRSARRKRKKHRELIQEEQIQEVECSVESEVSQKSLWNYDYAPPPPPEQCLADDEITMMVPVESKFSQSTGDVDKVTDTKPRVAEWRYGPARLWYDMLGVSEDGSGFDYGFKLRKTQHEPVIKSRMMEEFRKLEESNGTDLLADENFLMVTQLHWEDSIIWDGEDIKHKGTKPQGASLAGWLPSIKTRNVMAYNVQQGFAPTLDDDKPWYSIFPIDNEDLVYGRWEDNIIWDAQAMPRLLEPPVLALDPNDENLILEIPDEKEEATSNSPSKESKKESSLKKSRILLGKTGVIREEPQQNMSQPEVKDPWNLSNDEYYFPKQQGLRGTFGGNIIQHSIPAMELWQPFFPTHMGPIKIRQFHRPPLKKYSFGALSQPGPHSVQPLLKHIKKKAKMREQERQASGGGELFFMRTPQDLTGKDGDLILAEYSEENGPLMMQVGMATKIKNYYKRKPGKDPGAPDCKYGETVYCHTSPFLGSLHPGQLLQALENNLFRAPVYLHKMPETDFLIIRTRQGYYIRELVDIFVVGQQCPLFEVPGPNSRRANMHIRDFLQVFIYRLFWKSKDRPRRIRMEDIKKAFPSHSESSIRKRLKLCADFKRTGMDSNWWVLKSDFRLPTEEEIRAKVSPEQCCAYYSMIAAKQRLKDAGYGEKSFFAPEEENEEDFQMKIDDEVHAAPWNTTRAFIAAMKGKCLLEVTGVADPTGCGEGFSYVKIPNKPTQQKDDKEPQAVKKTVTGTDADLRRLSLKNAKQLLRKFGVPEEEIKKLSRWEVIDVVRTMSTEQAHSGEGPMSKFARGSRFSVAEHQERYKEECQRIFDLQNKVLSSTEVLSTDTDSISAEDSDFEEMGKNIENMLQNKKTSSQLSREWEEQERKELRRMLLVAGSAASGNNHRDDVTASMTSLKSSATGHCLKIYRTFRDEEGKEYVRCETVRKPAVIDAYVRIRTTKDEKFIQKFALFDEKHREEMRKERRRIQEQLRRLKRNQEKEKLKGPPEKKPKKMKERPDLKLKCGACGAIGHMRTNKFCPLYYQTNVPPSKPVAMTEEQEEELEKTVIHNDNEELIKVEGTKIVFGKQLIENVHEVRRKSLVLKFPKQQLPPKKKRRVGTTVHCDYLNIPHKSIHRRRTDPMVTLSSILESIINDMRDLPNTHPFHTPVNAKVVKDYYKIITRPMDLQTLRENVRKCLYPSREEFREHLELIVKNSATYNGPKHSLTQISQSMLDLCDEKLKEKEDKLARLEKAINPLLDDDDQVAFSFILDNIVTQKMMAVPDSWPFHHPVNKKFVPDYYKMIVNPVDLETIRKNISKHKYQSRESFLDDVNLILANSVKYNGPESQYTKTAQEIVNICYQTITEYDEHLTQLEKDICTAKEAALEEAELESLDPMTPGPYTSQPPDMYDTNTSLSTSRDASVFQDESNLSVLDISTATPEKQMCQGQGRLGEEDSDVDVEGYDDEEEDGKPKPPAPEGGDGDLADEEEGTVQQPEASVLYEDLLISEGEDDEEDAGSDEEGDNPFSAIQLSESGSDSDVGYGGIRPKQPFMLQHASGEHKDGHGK
Nuclear body protein SP140-like protein (Homo sapiens), sequence (Q9H930 whole entry): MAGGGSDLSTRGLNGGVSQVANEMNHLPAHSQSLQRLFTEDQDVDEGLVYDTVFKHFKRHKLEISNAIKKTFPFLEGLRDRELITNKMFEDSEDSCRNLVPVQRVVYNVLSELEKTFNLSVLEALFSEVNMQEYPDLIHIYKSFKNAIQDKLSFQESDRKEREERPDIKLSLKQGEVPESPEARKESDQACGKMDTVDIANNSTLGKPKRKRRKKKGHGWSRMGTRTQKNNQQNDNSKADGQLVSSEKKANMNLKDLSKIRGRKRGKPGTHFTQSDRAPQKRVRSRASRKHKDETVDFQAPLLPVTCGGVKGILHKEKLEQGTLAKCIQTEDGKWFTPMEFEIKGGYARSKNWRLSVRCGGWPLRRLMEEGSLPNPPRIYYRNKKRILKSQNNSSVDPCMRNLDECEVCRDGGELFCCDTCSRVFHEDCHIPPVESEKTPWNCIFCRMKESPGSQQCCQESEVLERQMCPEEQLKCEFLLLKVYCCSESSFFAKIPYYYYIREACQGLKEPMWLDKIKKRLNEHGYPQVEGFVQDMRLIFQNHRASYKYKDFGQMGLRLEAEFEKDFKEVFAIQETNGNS

ΔTm [1]: 0.91 °C
ΔTm ([2]; Protein concentration 2.0 uM): -0.61 °C
ΔTm ([2]; Protein concentration […]): -0.23 °C
IC50 [3]: 128 nM
inhibition [4]: 9.06%
ΔTm [5]: 0.82 °C
ΔTm [6]: 0.15 °C
ΔTm [7]: 0.21 °C
ΔTm [8]: 1.07 °C
ΔTm [9]: 0.53 °C
ΔTm [10]: 0.47 °C
ΔTm [11]: 1.14 °C
ΔTm [12]: 0.79 °C and 1.4 °C
ΔTm [13]: 3.15 °C and 3.42 °C
ΔTm [14]: 1.41 °C
ΔTm [15]: 1.02 °C
ΔTm [16]: 1.93 °C
ΔTm [17]: 2.03 °C
ΔTm [18]: 1.31 °C
ΔTm [19]: 1.42 °C
ΔTm [20]: 1.48 °C
ΔTm [21]: 1.19 °C
ΔTm [22]: 1.5 °C
ΔTm (Peregrin (Homo sapiens) [23]): 7.61 °C and 6.99 °C and 6.03 °C
ΔTm [24]: 1.85 °C and 3.4 °C
ΔTm [25]: -0.9 °C and 1.4 °C
ΔTm [26]: 1.67 °C
ΔTm [27]: -0.25 °C
ΔTm [28]: 0.5 °C
ΔTm [29]: 1.22 °C and 1.19 °C
ΔTm [30]: 0.87 °C
ΔTm [31]: 0.57 °C
ΔTm [32]: 0.53 °C
ΔTm [33]: 0.64 °C
ΔTm [34]: 0.53 °C
ΔTm [35]: 1.45 °C
ΔTm [36]: 0.96 °C
ΔTm [37]: 1.74 °C
ΔTm [38]: 0.5 °C
ΔTm [39]: 0.28 °C
ΔTm [40]: 0.36 °C
ΔTm [41]: 0.38 °C
ΔTm [42]: 0.35 °C
ΔTm [43]: 0.32 °C
ΔTm [44]: 0.82 °C
ΔTm [45]: 0.35 °C
ΔTm [46]: 0.36 °C and 0.33 °C
ΔTm [47]: 0.36 °C
ΔTm [48]: -1.08 °C and 1.68 °C
ΔTm [49]: 1.16 °C and 2.05 °C
ΔTm [50]: 0.37 °C
ΔTm (Peregrin (Homo sapiens) [51]): 0.46 °C and 0.95 °C
Compound: COc1cc2c(cc1NS(=O)(=O)c1ccc(Br)cc1C)n(C)c(=O)n2C
